Test results taken from US8008488B2 (Abbott GmbH & Co. KG, priority 2003, dated 2011).
Counter-ions that a name gives are not always drawn.

Legend:
[1] = molecular target: T1, human dopamine D2L receptors (long isoform) (Homo sapiens, UniProt P14416); assay: Dopamine D2L receptor binding, displacement of [125I]-iodospiperone; details: *Ki(D2L)/Ki(D3), HEK-293 membranes, 0.01 nM [125I]-iodospiperone
T1 construct: expressed in transfected cells
Method: (§1) The substance to be tested was dissolved either in methanol/Chremophor® (BASF-AG) or in dimethyl sulfoxide and then diluted with water to the desired concentration.
(§2) Triplicate mixtures were carried out.
The incubation buffer contained 50 mM Tris, 120 mM NaCl, 5 mM KCl, 2 mM CaCl2, 2 mM MgCl2 and 0.1% bovine serum albumin. The buffer was adjusted to pH 7.4 with HCl.
(§3) Measurement and Evaluation:
(§4) After incubation at 25° C. for 60 minutes, the mixtures were filtered under vacuum through Whatman GF/B glass fiber filters using a cell harvester. The filters were transferred by a filter transfer system into scintillation vials. After addition of 4 ml of Ultima Gold® (Packard), the samples were shaken for one hour and then the radioactivity was calculated in a beta counter (Packard, Tricarb 2000 or 2200CA). The cp values were converted into dpm by means of a standard quench series with the aid of the instrument's own program.
(§5) Evaluation of the inhibition plots took place by iterative nonlinear regression analysis using the Statistical Analysis System (SAS) similar to the “LIGAND” program described by Munson and Rodbard.

[2] = molecular target: T2, human dopamine D3 receptors (Homo sapiens, UniProt P35462); assay: Dopamine D3 receptor binding, displacement of [125I]-iodosulpride; details: membranes from HEK-293 cells with stably expressed human D3 receptors, 0.1 nM [125I]-iodosulpride
T2 construct: expressed in transfected cells
Method: as §1, §2
The incubation buffer contained 50 mM Tris, 120 mM NaCl, 5 mM KCl, 2 mM CaCl2, 2 mM MgCl2 and 0.1% bovine serum albumin, 10 μM quinolone, 0.1% ascorbic acid (prepared fresh each day). The buffer was adjusted to pH 7.4 with HCl.
as §3, §4, §5

T2 sequence (P35462 whole entry): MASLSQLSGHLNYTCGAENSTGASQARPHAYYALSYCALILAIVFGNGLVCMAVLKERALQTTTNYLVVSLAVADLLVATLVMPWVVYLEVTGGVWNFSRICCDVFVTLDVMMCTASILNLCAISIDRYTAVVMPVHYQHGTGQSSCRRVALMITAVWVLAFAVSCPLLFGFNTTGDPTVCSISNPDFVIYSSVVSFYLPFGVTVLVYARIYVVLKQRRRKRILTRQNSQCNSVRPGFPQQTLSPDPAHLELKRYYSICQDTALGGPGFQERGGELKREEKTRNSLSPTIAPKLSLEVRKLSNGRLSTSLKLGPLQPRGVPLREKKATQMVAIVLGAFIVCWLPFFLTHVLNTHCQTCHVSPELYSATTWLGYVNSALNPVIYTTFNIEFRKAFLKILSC
T1 sequence (P14416 whole entry, canonical isoform): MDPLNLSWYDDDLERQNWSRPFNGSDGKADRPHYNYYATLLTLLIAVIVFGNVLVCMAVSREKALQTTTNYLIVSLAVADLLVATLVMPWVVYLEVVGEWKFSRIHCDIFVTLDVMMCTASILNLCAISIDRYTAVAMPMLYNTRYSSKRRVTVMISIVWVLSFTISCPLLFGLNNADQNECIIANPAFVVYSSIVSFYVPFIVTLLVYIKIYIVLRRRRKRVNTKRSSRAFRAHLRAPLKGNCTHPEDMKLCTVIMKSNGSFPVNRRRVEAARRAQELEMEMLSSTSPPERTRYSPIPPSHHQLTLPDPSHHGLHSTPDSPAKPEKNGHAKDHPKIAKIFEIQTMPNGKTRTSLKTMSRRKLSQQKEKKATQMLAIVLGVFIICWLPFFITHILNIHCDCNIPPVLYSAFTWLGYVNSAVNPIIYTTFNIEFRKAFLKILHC

| Compound | Selectivity D3 vs. D2L* [1] | Ki [2] [nM] |
| --- | --- | --- |
| CC(C)(C)c1ccn(CCCCN2CCN(c3cc(C4CC4)nc(C(C)(C)C)n3)CC2)c(=O)n1 [Example 19, 4-tert-Butyl-1-{4-[4-(2-tert-butyl-6-cyclopropylpyrimidin-4-yl)piperazin-1-yl]butyl}pyrimidin-2(1H)-one] | 96 | 1.44 |
| Cc1ccn(CCCCN2CCN(c3cc(C(F)(F)F)nc(C(C)(C)C)n3)CC2)c(=O)n1 [Example 8, 1-(4-{4-[2-tert-Butyl-6-(trifluoromethyl)pyrimidin-4-yl]piperazin-1-yl}butyl)-4-methylpyrimidin-2(1H)-one] | 71 | 4.4 |
| C/C(=C\CN1CCN(c2cc(C(F)(F)F)nc(C(C)(C)C)n2)CC1)Cn1ccc(=O)[nH]c1=O [Example 46, 1-(2E)-{4-[4-(2-tert-Butyl-6-trifluoromethylpyrimidin-4-yl)piperazin-1-yl]-2-methylbut-2-enyl}-1H-pyrimidine-2,4-dione] | 43 | 5.41 |
| Cc1cn(CCCCN2CCN(c3cc(C(C)(C)C)nc(C(C)(C)C)n3)CC2)c(=O)nc1O [Example 9, 1-{4-[4-(2,6-ditert-Butylpyrimidin-4-yl)piperazin-1-yl]butyl}-4-hydroxy-5-methylpyrimidin-2(1H)-one] | 53 | 0.74 |
| CC(C)(C)c1nc(N2CCN(CCCCn3cc(C(F)(F)F)c(=O)[nH]c3=O)CC2)cc(C(F)(F)F)n1 [Example 55, 1-{4-[4-(2-tert-Butyl-6-trifluoromethylpyrimidin-4-yl)piperazin-1-yl]butyl}-5-trifluoromethyl-1H-pyrimidine-2,4-dione] | 119 | 5.44 |
| Cc1cn(CCCCN2CCN(c3ccc(F)cc3F)CC2)c(=O)[nH]c1=O [Example 131, 1-{4-[4-(2,4-Difluorophenyl)piperazin-1-yl]butyl}-5-methyl-1H-pyrimidine-2,4-dione] | 30 | 25.7 |
| Cn1c(=O)ccn(CCCCN2CCN(c3cc(C(F)(F)F)nc(C(C)(C)C)n3)CC2)c1=O [Example 27, 1-(4-{4-[2-tert-Butyl-6-(trifluoromethyl)pyrimidin-4-yl]piperazin-1-yl}butyl)-3-methylpyrimidine-2,4(1H,3H)-dione] | 52 | – |
| CC(C)(C)c1cc(N2CCN(CCCCn3ccc(=O)[nH]c3=O)CC2)nc(C(C)(C)C)n1 [Example 33, 1-{4-[4-(2,6-di-tert-Butylpyrimidin-4-yl)piperazin-1-yl]butyl}pyrimidine-2,4(1H,3H)-dione] | 42 | 0.7 |
| Cc1ccccc1-c1ccn(CCCCN2CCN(c3cc(C(F)(F)F)nc(C(C)(C)C)n3)CC2)c(=O)n1 [Example 60, 4-(2-tert-Butyl-6-trifluoromethylpyrimidin-4-yl)-1-[4-(2-oxo-4-(o-tolyl)-2H-pyrimidin-1-yl)butyl]piperazin-1-ium fumarate] | 91 | 4.33 |
| Cc1ccn(CCCCN2CCN(c3cc(C(C)C)nc(C(C)(C)C)n3)CC2)c(=O)n1.Cl [Example 39, 4-(2-tert-Butyl-6-isopropylpyrimidin-4-yl)-1-[4-(4-methyl-2-oxopyrimidin-1 (2H)-yl)butyl]piperazin-1-ium chloride] | 66 | 6.09 |
| CC(C)(C)c1nc(N2CCN(CCCCn3ccc(-c4ccsc4)nc3=O)CC2)cc(C(F)(F)F)n1 [Example 92, 4-(2-tert-Butyl-6-trifluoromethylpyrimidin-4-yl)-1-[4-(2-oxo-4-thiophen-3-yl-2H-pyrimidin-1-yl)butyl]piperazin-1-ium fumarate] | 31 | 4.56 |
| CC(CCCn1ccc(=O)[nH]c1=O)N1CCN(c2cc(C(F)(F)F)nc(C(C)(C)C)n2)CC1 (stereo not shown) [Example 62, 1-{4-[4-(2-tert-Butyl-6-trifluoromethylpyrimidin-4-yl)piperazin-1-yl]pentyl}-1H-pyrimidine-2,4-dione] | 49 | 11 |
| CCCc1cc(N2CCN(C(C)CCCn3ccc(=O)[nH]c3=O)CC2)nc(C(C)(C)C)n1 (stereo not shown) [Example 61, 4-(2-tert-Butyl-6-propylpyrimidin-4-yl)-1-[4-(2,4-dioxo-3,4-dihydro-2H-pyrimidin-1-yl)-1-methylbutyl]piperazin-1-ium fumarate] | 28 | 5.84 |
| CCCc1cc(N2CCN(CCCCn3ccc(-c4ccccc4)nc3=O)CC2)nc(C(C)(C)C)n1 [Example 49, 1-{4-[4-(2-tert-Butyl-6-propylpyrimidin-4-yl)piperazin-1-yl]butyl}-4-phenyl-1H-pyrimidin-2-one] | 86 | 0.54 |
| CCCc1cc(N2CCN(CCCCn3cc(C#N)c(=O)[nH]c3=O)CC2)nc(C(C)(C)C)n1 [Example 47, 1-{4-[4-(2-tert-Butyl-6-propylpyrimidin-4-yl)piperazin-1-yl]butyl}-2,4-dioxo-1,2,3,4-tetrahydropyrimidine-5-carbonitrile] | 51 | 4.87 |
| O=c1nc(-c2ccccc2)ccn1CCCCN1CCN(c2cccc(Cl)c2Cl)CC1 [Example 81, 4-(2,3-Dichlorophenyl)-1-[4-(2-oxo-4-phenyl-2H-pyrimidin-1-yl)butyl]piperazin-1-ium fumarate] | 94 | 2.56 |
| Cc1cn(CCCCN2CCN(c3ccccc3Cl)CC2)c(=O)[nH]c1=O [Example 127, 1-{4-[4-(2-Chlorophenyl)piperazin-1-yl]butyl}-5-methyl-1H-pyrimidine-2,4-dione] | 45 | 1.5 |
| CCCc1cc(N2CCN(CCCCn3ccc(C4CCC4)nc3=O)CC2)nc(C(C)(C)C)n1 [Example 74, 1-{4-[4-(2-tert-Butyl-6-propylpyrimidin-4-yl)piperazin-1-yl]butyl}-4-cyclobutyl-1H-pyrimidin-2-one] | 53 | 1.52 |
| Cc1cc(C)cc(N2CCN(CCCCn3cc(C)c(=O)[nH]c3=O)CC2)c1 [Example 132, 1-{4-[4-(3,5-Dimethylphenyl)piperazin-1-yl]butyl}-5-methyl-1H-pyrimidine-2,4-dione] | 34 | 5.5 |
| Cc1cn(CCCCN2CCN(c3cc(C(F)(F)F)nc(C(C)(C)C)n3)CC2)c(=O)nc1N(C)C.Cl [Example 12, 1-[2-tert-Butyl-6-(trifluoromethyl)pyrimidin-4-yl]-4-{4-[4-(dimethylamino)-5-methyl-2-oxopyrimidin-1 (2H)-yl]butyl}piperazin-4-ium chloride] | 63 | 3.44 |
| Cc1cn(CCCCN2CCN(c3cc(C(F)(F)F)nc(C(C)(C)C)n3)CC2)c(=O)n(C)c1=O [Example 25, 1-(4-{4-[2-tert-Butyl-6-(trifluoromethyl)pyrimidin-4-yl]piperazin-1-yl}butyl)-3,5-dimethylpyrimidine-2,4(1H,3H)-dione] | 34 | – |
